Data taken from patent US11286268B1, “EIF4E-inhibiting compounds and methods” (EFFECTOR THERAPEUTICS, INC., priority 2019, dated 2022).
Where two headings read alike, the source gives them in different places.

Biological target: recombinant eIF4E (Homo sapiens (Human), UniProt P06730)
Assay: Fluorescence polarization competition assay for eIF4E binding potency
Procedure, shortened: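 Protein and fluorescent cap-analog probe (EDA-m7GDP-ATTO-550) were mixed first for 5 min, after which serially diluted compound was added to final 75 nM eIF4E, 20 nM probe, 1% DMSO. Reactions equilibrated 30 min at room temperature before polarization was measured.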

[1] = fluorescence polarization competition, 75 nM recombinant eIF4E, 20 nM EDA-m7GDP-ATTO-550, IC50 class, read-out: elF4E FP
[2] = inhibition of eIF4E/EDA-m7GDP-ATTO-550 binding by 50%, Table 4B calculated values, read-out: IC50
[3] = inhibition of eIF4E/EDA-m7GDP-ATTO-550 binding, calculated IC50 values, Table 4B, read-out: IC50

Sequence of recombinant eIF4E (P06730 whole entry): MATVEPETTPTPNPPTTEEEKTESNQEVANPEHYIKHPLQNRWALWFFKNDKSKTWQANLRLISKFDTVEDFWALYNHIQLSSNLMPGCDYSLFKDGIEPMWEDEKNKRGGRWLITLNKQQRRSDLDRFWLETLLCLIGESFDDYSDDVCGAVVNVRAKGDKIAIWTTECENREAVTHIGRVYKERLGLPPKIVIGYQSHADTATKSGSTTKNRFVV

| SMILES | IC50 [1] [nM] | IC50 [2] [nM] | IC50 [3] [nM] |
| --- | --- | --- | --- |
| Cc1nc(N2CCN(C)CC2)c(C#N)c2c(=O)n(CCOc3ccc(Cl)cc3-c3ccnc4c(C(=O)O)csc34)c(C)nc12 [compound 448] | < 50 | 4.2 |  |
| Cc1nc2cc(F)cc(C#N)c2c(=O)n1CCOc1ccc(Cl)cc1-c1ccnc2c(C(=O)O)csc12 [compound 1937] |  |  | 38.2 |
| CNC(=O)c1cc(C#N)c2c(=O)n(CCOc3ccc(Cl)cc3-c3ccnc4c(C(=O)O)csc34)c(C)nc2c1 [compound 412] | 50 to 1000 | 70.1 |  |
| Cc1cc(-c2cc(Cl)ccc2OCCn2c(C)nc3cn(C)c(=O)c(C#N)c3c2=O)c2scc(C(=O)O)c2n1 [compound 1005] | < 50 | 33.4 |  |
| Cc1cc(-c2cc(Cl)ccc2OCCn2c(C)nc3cc(C(F)(F)F)c(CN4CCNCC4)c(C#N)c3c2=O)c2scc(C(=O)O)c2n1 [compound 649] | < 50 | 15 |  |
| Cc1ccccc1S(=O)(=O)NC(=O)c1csc2c(-c3cc(Cl)ccc3C#CCn3c(C)nc4cnc(N(C)C5CCN(CC(F)(F)F)CC5)c(C#N)c4c3=O)ccnc12 [compound 1549] |  |  | 26.2 |
| Cc1cc(-c2cc(Cl)ccc2OCCn2c(C)nc3cc4c(c(C#N)c3c2=O)CCC4)c2scc(C(=O)O)c2n1 [compound 748] | < 50 | 16.3 |  |
| Cc1cc(C(=O)O)c(C#N)c(-c2cc(Cl)ccc2OCCn2cnc3cnc(C#N)cc3c2=O)n1 [compound 116] | > 1000 | > 3000 |  |
| Cc1nc2cc(C(F)(F)F)c(OC(F)F)c(C#N)c2c(=O)n1CCOc1ccc(Cl)cc1-c1ccnc2c(C(=O)O)csc12 [compound 549] | < 50 | 19.3 |  |
| Cc1nc2cnc(N3CCN(C(C)C)CC3)c(C#N)c2c(=O)n1CC#Cc1ccc(Cl)cc1-c1ccnc2c(C(=O)O)csc12 [compound 1637] |  |  | 17.7 |
| Cc1nc2cc(C(F)(F)F)cc(C#N)c2c(=O)n1CCOc1ccc(Cl)cc1-c1cccc2c(C(=O)O)csc12 [compound 402] | 50 to 1000 | 124 |  |
| O=C(O)c1cccc(-c2cc(Cl)ccc2OCCn2cnc3cc(F)cc(F)c3c2=O)c1 [compound 78] | > 1000 | 1630 |  |
| Cc1nc2c(C#N)nc(C#N)cc2c(=O)n1CCOc1ccc(Cl)cc1-c1cccc(C(=O)O)c1 [compound 1997] |  |  | 77.5 |
| Cc1nc2cnc(N3CCN(C4(C#N)CC4)CC3)c(C#N)c2c(=O)n1CC#Cc1ccc(Cl)cc1-c1ccnc2c(C(=O)O)csc12 [compound 1368] |  |  | 19.9 |
| Cc1nc2cnc(C3CCC(F)(F)C3)c(C#N)c2c(=O)n1CCOc1ccc(Cl)cc1-c1ccnc2c(C(=O)O)csc12 (centres unmarked) [compound 1279] |  |  | 8.91 |
| CCc1nc2cnccc2c(=O)n1CCOc1ccc(Cl)cc1-c1cccc(C(=O)O)c1 [compound 70] | 50 to 1000 | 432 |  |
| Cc1nc2cnc(N3CC4(CCN4CC(F)F)C3)c(C#N)c2c(=O)n1CCOc1ccc(Cl)cc1-c1ccnc2c(C(=O)O)csc12 [compound 1634] |  |  | 17.4 |
| O=C(O)c1cccc(-c2cc(Cl)ccc2OCCn2c(Nc3ccccc3)nc3c(Cl)nccc3c2=O)c1 [compound 2001] |  |  | 65800 |
| Cc1cc(-c2cc(Cl)ccc2OCCn2c(C)nc3c(-c4ccccc4)nc(N4CCC4)c(C#N)c3c2=O)c2scc(C(=O)O)c2n1 [compound 1008] | < 50 | 15.3 |  |
| Cc1nc2cc(C(F)(F)F)c(N3CCN(C)CC3)c(C#N)c2c(=O)n1CCOc1ccc(Cl)cc1-c1ccc(F)c2c(C(=O)O)csc12 [compound 1214] | < 50 |  | 5.08 |
| Cc1ncc(F)cc1-c1c(CN(C)C)cc2nc(C)n(CCOc3ccc(Cl)cc3-c3ccnc4c(C(=O)O)c(C)sc34)c(=O)c2c1C#N [compound 1284] |  |  | > 1000 |
| Cc1cc(-c2cc(Cl)ccc2OCCn2c(C)nc3cc(C(F)(F)F)c(N4CCN(CCO)CC4)c(C#N)c3c2=O)c2sc(C)c(C(=O)O)c2n1 [compound 1393] |  |  | 13.2 |
| Cc1cc(-c2cc(Cl)ccc2OCCn2c(C)nc3cnc(C4CCCC(F)(F)C4)c(C#N)c3c2=O)c2scc(C(=O)O)c2n1 (centres unmarked) [compound 931] | < 50 | 13.7 |  |
| Cc1nc2cnc(N(C)C3CCN([C@@H]4C[C@H]4C(F)(F)F)CC3)c(C#N)c2c(=O)n1CC#Cc1ccc(Cl)cc1-c1ccnc2c(C(=O)O)csc12 [compound 1175] | < 50 | 22.1 |  |
| Cc1cc(-c2cc(Cl)ccc2OCCn2c(C)nc3cnc(N4CCN(C)CC4)c(C#N)c3c2=O)c2sccc2n1 [compound 1089] | 50 to 1000 | 618 |  |
| Cc1c(C(F)F)c2cc(C(F)(F)F)cc(C#N)c2c(=O)n1CCOc1ccc(Cl)cc1-c1ccnc2c(C(=O)O)csc12 [compound 269] | < 50 | 15.6 |  |
| Cc1nc2cnc(N(C)C3CCN(C4CC(F)(F)C4)CC3)c(C#N)c2c(=O)n1CC#Cc1ccc(Cl)cc1-c1ccnc2c(C(=O)NS(=O)(=O)C3CC(F)(F)C3)csc12 [compound 1833] |  |  | 14.8 |

| SMILES | IC50 [1] [nM] | IC50 [2] [nM] | IC50 [3] [nM] |
| --- | --- | --- | --- |
| Cc1nc2cnc(N3CCN(C4C(C)(C)C4(C)C)CC3)c(C#N)c2c(=O)n1CCOc1ccc(Cl)cc1-c1ccnc2c(C(=O)O)csc12 [compound 1473] |  |  | 16.9 |
| N#Cc1cc2c(=O)n(CCOc3ccc(Cl)cc3-c3ccc(OC(F)(F)F)c(C(=O)O)c3)cnc2cn1 [compound 113] | 50 to 1000 | 804 |  |
| Cc1cc(-c2cc(Cl)ccc2OCCn2c(C)nc3cc(C(F)(F)F)c(N4CCN(C)CC4)c(C#N)c3c2=O)cc(C)n1 [compound 835] | < 50 | 29.3 |  |
| Cc1nc2cnc(N(C)C3CCN(C4CC(F)(F)C4)CC3)c(C#N)c2c(=O)n1CC#Cc1ccc(Cl)cc1-c1ccnc2c(C(=O)NS(=O)(=O)C(F)(F)F)csc12 [compound 1818] |  |  | 13 |
| N#Cc1cc2c(=O)n(CCOc3ccc(Cl)cc3-c3csc(C(=O)O)c3)cnc2cn1 [compound 80] | 50 to 1000 | 110 |  |
| COc1ncc2nc(C)n(CCOc3ccc(Cl)cc3-c3cc(C)nc4c(C(=O)O)csc34)c(=O)c2c1C#N [compound 897] | < 50 | 1.4 |  |
| Cc1cc(C)nc(-c2c(C(F)(F)F)cc3nc(C)n(CCOc4ccc(Cl)cc4-c4cc(C)nc5c(C(=O)O)csc45)c(=O)c3c2C#N)c1 [compound 905] | < 50 | 9.38 |  |
| Cc1nc2cnc(N(C)C3CCN(C4CC(F)(F)C4)CC3)c(C#N)c2c(=O)n1CC#Cc1ccc(Cl)cc1-c1ccnc2c(C(=O)NS(C)(=O)=O)csc12 [compound 1589] |  |  | 12.4 |
| N#Cc1cccc2nc(C(F)F)n(CCOc3ccc(Cl)cc3-c3ccc(C(=O)O)c4ccsc34)c(=O)c12 [compound 191] | 50 to 1000 | 144 |  |
| Cc1nc2cc(CN(C)C)c(OC(F)F)c(C#N)c2c(=O)n1CC#Cc1ccc(Cl)cc1-c1ccnc2c(C(=O)O)csc12 [compound 626] | < 50 | 10.4 |  |
| Cc1ccc(Nc2c(Cl)cc3nc(C)n(CCOc4ccc(Cl)cc4-c4cc(C)nc5c(C(=O)O)csc45)c(=O)c3c2C#N)cn1 [compound 960] | < 50 | 39.6 |  |
| Cc1cccc(-c2c(C(F)(F)F)cc3nc(C)n(CCOc4ccc(Cl)cc4-c4cc(C)nc5c(C(=O)O)csc45)c(=O)c3c2C#N)n1 [compound 675] | < 50 | 7.77 |  |
| CCc1cc(-c2cc(Cl)ccc2OCCn2c(C)nc3cc(C(F)(F)F)c(N4CCN(C)CC4)cc3c2=O)c2scc(C(=O)O)c2n1 [compound 1083] | < 50 | 44 |  |
| N#Cc1cc(F)cc2nc(C(F)F)n(CCOc3ccc(Cl)cc3-c3ccnc4c(C(=O)O)csc34)c(=O)c12 [compound 1938] |  |  | 46.3 |
| Cc1nc2cnc(N(C)C3CCN(CC(F)(F)CO)CC3)c(C#N)c2c(=O)n1CC#Cc1ccc(Cl)cc1-c1ccnc2c(C(=O)O)csc12 [compound 1132] | < 50 | 13.3 |  |
| Cc1cc(-c2cc(Cl)ccc2OCCn2c(C)nc3cc(C(F)(F)F)c(Cc4ncccc4F)c(C#N)c3c2=O)c2scc(C(=O)O)c2n1 [compound 473] | < 50 | 14.5 |  |
| N#Cc1cc(C#N)c2c(=O)n(CCOc3ccc(Cl)cc3-c3cccc(C(=O)O)c3)c(CF)nc2c1 [compound 231] | < 50 | 12.9 |  |
| Cc1cc(-c2c(F)cc3nc(C)n(CCOc4ccc(Cl)cc4-c4cc(C)nc5c(C(=O)O)csc45)c(=O)c3c2C#N)ccn1 [compound 778] | < 50 | 0.0702 |  |
| Cc1cc(-c2cc(Cl)ccc2OCCn2c(C)nc3cc(F)c(-c4cnc(C)s4)c(C#N)c3c2=O)c2scc(C(=O)O)c2n1 [compound 921] | 50 to 1000 | 69.6 |  |
| N#Cc1cccc2nc(C(F)F)n(CCOc3ccc(Cl)cc3-c3ccnc4c(C(=O)O)scc34)c(=O)c12 [compound 2035] |  |  | 72.3 |
| Cc1cc(-c2cc(Cl)ccc2OCCn2c(C)nc3c(C)nc(C(F)F)c(C#N)c3c2=O)c2scc(C(=O)O)c2n1 [compound 728] | < 50 | 31 |  |
| Cc1nc2cc(C(F)(F)F)c(CN3CCN(C)CC3)c(C#N)c2c(=O)n1CC#Cc1ccc(Cl)cc1-c1ccnc2c(C(=O)O)csc12 [compound 615] | < 50 | 16.3 |  |
| Cc1ncc(C#N)c2c(=O)n(CCOc3ccc(Cl)cc3-c3ccc(Cl)c4c(C(=O)O)csc34)c(C)nc12 [compound 723] | < 50 | 28.7 |  |
| CCN(c1ncc2nc(C)n(CC#Cc3ccc(Cl)cc3-c3ccnc4c(C(=O)NS(=O)(=O)CC)csc34)c(=O)c2c1C#N)C1CCN(C2COC2)CC1 [compound 1733] |  |  | 8.11 |
| N#Cc1cn(CCOc2ccc(Cl)cc2-c2ccnc3c(C(=O)O)csc23)c2c(=O)[nH]c(Nc3ccccc3)nc12 [compound 175] | < 50 | 20.4 |  |
| Cc1cc(-c2cc(Cl)ccc2OCCn2c(C)nc3c(C)c(C(F)(F)F)cc(C#N)c3c2=O)c2scc(C(=O)O)c2n1 [compound 364] | 50 to 1000 | 107 |  |
